Patent US20230107642A1 (Erasca, Inc., priority 2020, published 2023)

target: T1, K-Ras G12C (Homo sapiens, UniProt P01116, G12C); assay: CAF assay (% CAF; method in Example 7, not in this part); format: binding; details: 10 uM, 1 h; Table 3
T1 construct: This protein contained 188 amino acids in total, including an N-terminal 6-Histidine tag; made in house; host or cells: E. coli BL21

Compound | % CAF @ 10 uM, 1h [%]
C[C@H]1CN(C(=O)/C=C/C(F)F)CCN1c1nc(=O)n2c3c(c(-c4c(F)cc(F)cc4F)c(Cl)cc13)SCC2 [Example 120, (S,E)-9-chloro-7-(4-(4,4-difluorobut-2-enoyl)-2-methylpiperazin-1-yl)-10-(2,4,6-trifluorophenyl)-2,3-dihydro-5H-[1,4]thiazino[2,3,4-ij]quinazolin-5-one] | 95.9
CN(C)C/C=C/C(=O)N1CCN(c2nc(=O)n3c4c(c(-c5ccc(F)cc5F)c(Cl)cc24)SCC3)C[C@H]1C#N [Example 121, (2S)-4-(9-chloro-10-(2,4-difluorophenyl)-5-oxo-2,3-dihydro-5H-[1,4]thiazino[2,3,4-ij]quinazolin-7-yl)-1-((E)-4-(dimethylamino)but-2-enoyl)piperazine-2-carbonitrile] | 3.6
C=CC(=O)N1CCN(c2nc(=O)n3c4c(c(-c5ccc(F)cc5F)c(Cl)cc24)SCC3CN2CCN(CC)CC2)[C@@H](C)C1 (stereo partly drawn) [Example 122, 7-((S)-4-acryloyl-2-methylpiperazin-1-yl)-9-chloro-10-(2,4-difluorophenyl)-3-((4-ethylpiperazin-1-yl)methyl)-2,3-dihydro-5H-[1,4]thiazino[2,3,4-ij]quinazolin-5-one] | 80.9
C=C(F)C(=O)N1CCN(c2nc(=O)n3c4c(c(-c5ccc(F)cc5F)c(Cl)cc24)SCC3)C[C@H]1C#N [Example 125, (2S)-4-(9-chloro-10-(2,4-difluorophenyl)-5-oxo-2,3-dihydro-5H-[1,4]thiazino[2,3,4-ij]quinazolin-7-yl)-1-(2-fluoroacryloyl) piperazine-2-carbonitrile] | 94.5
C=CC(=O)N1CCN(c2nc(=O)n3c4c(c(-c5ccc(F)cc5F)c(Cl)cc24)SCC3CN2CCN(C)CC2)[C@@H](C)C1 (stereo partly drawn) [Example 126, 7-((S)-4-acryloyl-2-methylpiperazin-1-yl)-9-chloro-10-(2,4-difluorophenyl)-3-((4-methylpiperazin-1-yl)methyl)-2,3-dihydro-5H-[1,4]thiazino[2,3,4-ij]quinazolin-5-one] | 33.1
C=CC(=O)N1CCN(c2nc(=O)n3c4c(c(-c5cccc6cnn(C)c56)c(Cl)cc24)SCC3)[C@@H](C)C1 [Example 127, 7-((S)-4-acryloyl-2-methylpiperazin-1-yl)-9-chloro-10-(1-methyl-1H-indazol-7-yl)-2,3-dihydro-5H-[1,4]thiazino[2,3,4-ij]quinazolin-5-one] | 60
C=CC(=O)N1CCN(c2nc(=O)n3c4c(c(-c5ccc(F)cc5F)c(Cl)cc24)SCC3)CC12CNC2=O (stereo not shown) [Example 128, 7-(5-acryloyl-1-oxo-2,5,8-triazaspiro[3.5]nonan-8-yl)-9-chloro-10-(2,4-difluorophenyl)-2,3-dihydro-5H-[1,4]thiazino[2,3,4-ij]quinazolin-5-one] | 62.7
C=CC(=O)N1C2CSCC1CN(c1nc(=O)n3c4c(c(-c5ccc(F)cc5F)c(Cl)cc14)SCC3)C2 [Example 129, 7-(9-acryloyl-3-thia-7,9-diazabicyclo[3.3.1]nonan-7-yl)-9-chloro-10-(2,4-difluorophenyl)-2,3-dihydro-5H-[1,4]thiazino[2,3,4-ij]quinazolin-5-one] | 95.3
C=CC(=O)N1CCN(c2nc(=O)n3c4c(c(-c5ccc(F)cc5F)c(Cl)cc24)SC[C@H]3COC)[C@@H](C)C1 [Example 130, (3R)-7-((S)-4-acryloyl-2-methylpiperazin-1-yl)-9-chloro-10-(2,4-difluorophenyl)-3-(methoxymethyl)-2,3-dihydro-5H-[1,4]thiazino[2,3,4-ij]quinazolin-5-one] | 94.5
C=CC(=O)N1CCN(c2nc(=O)n3c4c(c(-c5ccc(F)cc5F)c(Cl)cc24)SCC3)C2CS(=O)(=O)CC21 (stereo not shown) [Example 131, 7-(4-acryloyl-6,6-dioxidohexahydrothieno[3,4-b]pyrazin-1(2H)-yl)-9-chloro-10-(2,4-difluorophenyl)-2,3-dihydro-5H-[1,4]thiazino[2,3,4-ij]quinazolin-5-one] | 82.2
C=CC(=O)N1CCN(c2nc(=O)n3c4c(c(-c5ccc(F)cc5F)c(C#N)cc24)SCC3)[C@@H](C)C1 [Example 132, 7-((S)-4-acryloyl-2-methylpiperazin-1-yl)-10-(2,4-difluorophenyl)-5-oxo-2,3-dihydro-5H-[1,4]thiazino[2,3,4-ij]quinazoline-9-carbonitrile] | 91.9
C=CC(=O)N1CCN(c2nc(=O)n3c4c(c(-c5ccc(F)cc5F)c(Cl)cc24)SCC3)CC12CN(C)C2=O (stereo not shown) [Example 133, 7-(5-acryloyl-2-methyl-1-oxo-2,5,8-triazaspiro[3.5]nonan-8-yl)-9-chloro-10-(2,4-difluorophenyl)-2,3-dihydro-5H-[1,4]thiazino[2,3,4-ij]quinazolin-5-one] | 51.9
C=CC(=O)N1CCN(c2nc(=O)n3c4c(c(-c5ccc(F)cc5F)c(Cl)cc24)SCC3)C2COCC21 (stereo not shown) [Example 134, 7-(4-acryloylhexahydro-furo[3,4-b]pyrazin-1(2H)-yl)-9-chloro-10-(2,4-difluorophenyl)-2,3-dihydro-5H-[1,4]thiazino[2,3,4-ij]quinazolin-5-one] | 85
C=CC(=O)N1CC2CC(C1)N2c1nc(=O)n2c3c(c(-c4ccc(F)cc4F)c(Cl)cc13)SCC2 [Example 135, 7-(3-acryloyl-3,6-diazabicyclo[3.1.1]heptan-6-yl)-9-chloro-10-(2,4-difluorophenyl)-2,3-dihydro-5H-[1,4]thiazino[2,3,4-ij]quinazolin-5-one] | 0
C=CC(=O)N1CCN(c2nc(=O)n3c4c(c(-n5ccccc5=O)c(Cl)cc24)SCC3)[C@@H](C)C1 [Example 136, 7-((S)-4-acryloyl-2-methylpiperazin-1-yl)-9-chloro-10-(2-oxopyridin-1(2H)-yl)-2,3-dihydro-5H-[1,4]thiazino[2,3,4-ij]quinazolin-5-one] | 89.4
C=CC(=O)N1CCN(c2nc(=O)n3c4c(c(-c5c(F)cc(F)cc5F)c(Cl)cc24)SC[C@H]3COC)[C@@H](C)C1 [Example 137, (R)-7-((S)-4-acryloyl-2-methylpiperazin-1-yl)-9-chloro-3-(methoxymethyl)-10-(2,4,6-trifluorophenyl)-2,3-dihydro-5H-[1,4]thiazino[2,3,4-ij]quinazolin-5-one] | 86.8
C=CC(=O)N1C2CC(=O)CC1CN(c1nc(=O)n3c4c(c(-c5ccc(F)cc5F)c(Cl)cc14)SCC3)C2 [Example 138, 7-(9-acryloyl-7-oxo-3,9-diazabicyclo[3.3.1]nonan-3-yl)-9-chloro-10-(2,4-difluorophenyl)-2,3-dihydro-5H-[1,4]thiazino[2,3,4-ij]quinazolin-5-one] | 95.8
C=CC(=O)N1CCN(c2nc(=O)n3c4c(c(-c5ccc(F)cc5F)c(Cl)cc24)SCC3)C[C@H]1C [Example 139, 7-((R)-4-acryloyl-3-methylpiperazin-1-yl)-9-chloro-10-(2,4-difluorophenyl)-2,3-dihydro-5H-[1,4]thiazino[2,3,4-ij]quinazolin-5-one] | 94.8
C=CC(=O)N1CCN(c2nc(=O)n3c4c(c(-c5ccc(F)cc5F)c(Cl)cc24)SCC3)C[C@@H]1C [Example 140, 7-((S)-4-acryloyl-3-methylpiperazin-1-yl)-9-chloro-10-(2,4-difluorophenyl)-2,3-dihydro-5H-[1,4]thiazino[2,3,4-ij]quinazolin-5-one] | 90.6
C=CC(=O)N1CCN(c2nc(=O)n3c4c(c(-c5ccc(F)cc5F)c(C(F)(F)F)cc24)SCC3)[C@@H](C)C1 [Example 141, 7-((S)-4-acryloyl-2-methylpiperazin-1-yl)-10-(2,4-difluorophenyl)-9-(trifluoromethyl)-2,3-dihydro-5H-[1,4]thiazino[2,3,4-ij]quinazolin-5-one] | 95.7
C=CC(=O)N1CCN(c2nc(=O)n3c4c(c(-c5ccc(F)cc5F)c(Br)cc24)SCC3)[C@@H](C)C1 [Example 142, 7-((S)-4-acryloyl-2-methylpiperazin-1-yl)-9-bromo-10-(2,4-difluorophenyl)-2,3-dihydro-5H-[1,4]thiazino[2,3,4-ij]quinazolin-5-one] | 94.7
C=CC(=O)N1CCN(c2nc(=O)n3c4c(c(-c5ccc(F)cc5F)c(C5CC5)cc24)SCC3)[C@@H](C)C1 [Example 143, 7-((S)-4-acryloyl-2-methylpiperazin-1-yl)-9-cyclopropyl-10-(2,4-difluorophenyl)-2,3-dihydro-5H-[1,4]thiazino[2,3,4-ij]quinazolin-5-one] | 95.4
C=CC(=O)N1CCN(c2nc(=O)n3c4c(c(-c5ccc(F)cc5F)c(Cl)cc24)SCC3)C2CSCC21 (stereo not shown) [Example 144, 7-(4-acryloylhexahydrothieno[3,4-b]pyrazin-1(2H)-yl)-9-chloro-10-(2,4-difluorophenyl)-2,3-dihydro-5H-[1,4]thiazino[2,3,4-ij]quinazolin-5-one] | 64.9
C=CC(=O)N1CCN(c2nc(=O)n3c4c(c(-c5ccc(F)cc5F)c(Cl)cc24)SCC3)C2CCC21 (stereo not shown) [Example 145, 7-(5-acryloyl-2,5-diazabicyclo[4.2.0]octan-2-yl)-9-chloro-10-(2,4-difluorophenyl)-2,3-dihydro-5H-[1,4]thiazino[2,3,4-ij]quinazolin-5-one] | 58
C=CC(=O)N1CCN(c2nc(=O)n3c4c(c(-c5c(F)cc(F)cc5F)c(Cl)cc24)SCC3)[C@@H](C)C1 [Example 146, (S)-7-(4-acryloyl-2-methylpiperazin-1-yl)-9-chloro-10-(2,4,6-trifluorophenyl)-2,3-dihydro-5H-[1,4]thiazino[2,3,4-ij]quinazolin-5-one] | 90.7
C=CC(=O)N1CCN(c2nc(=O)n3c4c(c(-c5ccc(F)cc5F)c(Cl)cc24)SCC3CN2CCOCC2)[C@@H](C)C1 (stereo partly drawn) [Example 147, 7-((S)-4-acryloyl-2-methylpiperazin-1-yl)-9-chloro-10-(2,4-difluorophenyl)-3-(morpholinomethyl)-2,3-dihydro-5H-[1,4]thiazino[2,3,4-ij]quinazolin-5-one] | 44.6

same assay, conditions: 10 μM, 1 h; Table 4

Compound | % CAF @ 10 μM, 1 h [%]
C=CC(=O)N1CCN(c2nc(=O)n3c4c(c(-c5ccc(F)cc5F)c(Cl)cc24)SC[C@H]3COC)[C@@H](C)C1 [Example 130, (3R)-7-((S)-4-acryloyl-2-methylpiperazin-1-yl)-9-chloro-10-(2,4-difluorophenyl)-3-(methoxymethyl)-2,3-dihydro-5H-[1,4]thiazino[2,3,4-ij]quinazolin-5-one] | 94.5
C=CC(=O)N1CCN(c2nc(=O)n3c4c(c(-c5c(F)cc(F)cc5F)c(Cl)cc24)SC[C@H]3COC)[C@@H](C)C1 [Example 137, (R)-7-((S)-4-acryloyl-2-methylpiperazin-1-yl)-9-chloro-3-(methoxymethyl)-10-(2,4,6-trifluorophenyl)-2,3-dihydro-5H-[1,4]thiazino[2,3,4-ij]quinazolin-5-one] | 86.8
